{
  "source": "patent US9289446B2",
  "about": "“Myocardial perfusion imaging methods and compositions” (GILEAD SCIENCES, INC., priority 2002, dated 2016)",
  "key": {"[1]": {"test_system": "blood flow in coronary, mesenteric, hind limb and renal vascular beds", "assay": "Example 8: vasodilator effects in different vascular beds (CBF, MBF, LBF, RBF) in awake dogs", "type": "in vivo", "settings": "n=6, FIG. 18", "procedure": "Example 8 employed a pharmaceutical composition consisting of an aqueous composition of 100 micrograms/mL CVT-3146 in 15% (w:v) propylene glycol and 100 mM phosphate buffer at pH 7 with 0.1% EDTA. The formulation was stored in type I glass vials at 5 mL per vial.\nIn this study the vasodilator effects of CVT-3146 were compared to those of ADO in different vascular beds in awake dogs. Dogs were chronically instrumented for measurements of the blood flow in coronary (CBF), mesenteric (MBF), hind limb (LBF), and renal (RBF) vascular beds, and hemodynamics."}, "[2]": {"assay": "Example 3: pharmacokinetic profile of CVT-3146 in healthy volunteers after single IV bolus (three-compartment model)", "type": "in vivo", "settings": "male, human, plasma, Total (doses 1-30 μg/kg), N=22, mean, read-out: VSS (volume of distribution at steady state)", "procedure": "This Example is a study performed to evaluate (1) the maximum tolerated dose of CVT-3146 and (2) the pharmacokinetic profile of CVT-3146 in healthy volunteers, after a single IV bolus dose.\nThe study was performed using thirty-six healthy, non-smoking male subjects between the ages of 18 and 59 and within 15% of ideal body weight.\nCVT-3146 was administered as an IV bolus (20, seconds) in ascending doses of […], 10, 20, and 30 μg/kg.\nPharmacokinetics: • Plasma samples were drawn during supine phase (Days 1 and 2) at 0, 1, 2, 3, 4, 5, 7, 10, 15, 20, 30, 45 minutes after dosing and at 1, 1.5, 2, 4, 6, 8, 12 and 24 hours after dosing. Urine was collected for 24 hours for CVT-3146 excretion.\nA three-compartment open model was fit to the data using observed Tmax (1-4 minutes) as the duration of a zero-order infusion. Reliable parameter estimates were obtained for dose of 1-30 μg/kg. Parameters are summarized in the following (Table 2): […]"}, "[3]": {"test_system": "coronary blood flow velocity", "assay": "Example 2: dose-ranging study of CVT-3146 IV bolus as coronary vasodilator (coronary flow velocity, heart rate, blood pressure, adverse events)", "type": "in vivo, human", "text": "This example is a study performed to determine the range of dosages over which the selective A2A receptor agonist, CVT-3146 can be administered and be effective as a coronary vasodilator.\n(§1) The study included patients undergoing a clinically indicated coronary catheterization with no more than a 70% stenosis in any coronary artery and no more than a 50% stenosis of the study vessel had CBFv determined by Doppler flow wire. Study subject were selected after measuring baseline and peak CBFv after an intracoronary (IC) injection of 18 μg of Ado. 36 subjects were identified as meeting the study criteria of having a peak to baseline CBFv ration of ≧2.5 in response to Adenosine,\nCVT-3146 was administered to the study subjects by IV bolus in less that 10 seconds in amounts ranging from 10 μg to 500 μg.\nThe effectiveness of both compounds was measured by monitoring coronary flow velocity. Other coronary parameters that were monitored included heart rate and blood pressure. These parameters were measured in order to evaluate the time to peak dose response, the magnitude of the dose response and the duration of the dose response. Adverse events were also monitored. Coronary blood flow velocity was measured at the left anterior descending coronary artery (LAD) or left circumflex coronary artery (LCx). The velocity measurements were taken by following standard heart catheterization techniques and inserting a 0.014 inch Doppler-tipped Flowire into the LAD or LCx vessel and thereafter monitoring blood flow velocity. In addition, hemodynamic and electrocardiographic measurements were recorded continuously.\nOverall, 36 human subjects (n=36) were evaluated. Of the 36, 18 were female and 18 were male. Their mean age was 53.4 and they ranged from 24-72 years in age. Of the 36 subjects evaluated, the LAD vessel of 31 subjects was monitored, and the LCx vessel of 5 subjects was monitored. The following doses (μg) of CVT-3146 were given to the subjects in a single iv bolus: 10 (n=4); 30 (n=6); 100 (n=4); 300 (n=7); 400 (n=9); 500 (n=6)."}, "[4]": {"test_system": "coronary blood flow velocity (CBFv)", "assay": "Example 1: open label study of CVT-3146 IV bolus on CBFv (Doppler flow wire) in patients undergoing coronary catheterization", "type": "in vivo, humans", "procedure": "The purpose of this open label study was to determine the magnitude and duration of effect of CVT-3146 (10-500 μg) on CBFv in humans.\nas §1, with “METHODS: Patients” for “The study included patients”, “Twenty-three patients, who” for “36 subjects”, “ratio” for “ration”, “Adenosine, received a rapid (<10 sec) peripheral IV bolus of CVT-3146; Doppler signals were stable and interpretable over the time-course of the increase in CBFv in 17 patients.” for “Adenosine,”"}, "[5]": {"assay": "Solubility of CVT-3146 in water and in MBA-containing composition", "type": "physicochemical", "settings": "methylboronic acid co-solvent, dependence on pH", "procedure": "A preferred A2A receptor agonist of this invention is CVT-3146. CVT-3146 has solubility in water of about 50 micrograms/mL. Therefore, CVT-3146 can be dissolved and administered in water so long as the desired weight amount of CVT-3146 can be administered in an acceptable volume. For example, a preferred dose of about 400 micrograms can be administered in 8 mL of water. If this volume is too great for administration purposes, or if the pharmaceutical composition will be stored at other than room temperature (RT), then additional ingredients can be added to the composition to increase the solubility of CVT-3146 in the composition and/or to provide the resulting pharmaceutical composition with other improved properties such as improved stability and storage properties. Pharmaceutical compositions of this invention that include CVT-3146 may include up to about 1 milligram/mL of CVT-3146. It is preferred that pharmaceutical compositions including CVT-3146 include from about 50 to about 250 micrograms/mL, and more preferably from about 50 to 150 micrograms/mL of CVT-3146.\nIn order to improve their solubility and storage properties, A2A receptor agonists of this invention can be administered in a pharmaceutical composition including a methylboronic acid (MBA) co-solvent. The methylboronic acid is added to the pharmaceutical composition to improve agonist solubility and shelf life. […]"}},
  "data": [
    {"compound": "CNC(=O)c1cnn(-c2nc(N)c3ncn([C@@H]4O[C@H](CO)[C@@H](O)[C@H]4O)c3n2)c1", "note": "[CVT-3146, (1-{9-[(4S,2R,3R,5R)-3,4-dihydroxy-5-(hydroxymethyl)oxolan-2-yl]-6-aminopurin-2-yl}pyrazol-4-yl)-N-methylcarboxamide]", "values": [
      {"measurement": "increase in hind limb blood flow (LBF) compared to ADO", "setting": "[1]", "value": "smaller increase in LBF than ADO"},
      {"measurement": "Vd", "setting": "[2]", "value": 75.5, "unit": "L"},
      {"measurement": "time of maximum decrease in diastolic BP after dosing", "setting": "[3]; 400 μg IV bolus", "value": "about 1 minute"},
      {"measurement": "time of maximum decrease in systolic BP after dosing", "setting": "[3]; 400 μg IV bolus", "value": "about 1 minute"},
      {"measurement": "time of maximum increase in heart rate after dosing", "setting": "[3]; 400 μg IV bolus", "value": "about 1 minute"},
      {"measurement": "peak effects compared with adenosine", "setting": "[3]; doses above about 100 μg", "value": "equivalent to 18 μg adenosine administered IC"},
      {"measurement": "maximal decrease in systolic blood pressure (BP)", "setting": "[4]; 500 μg (n=3)", "value": "8.7±7.6"},
      {"measurement": "maximal increase in heart rate (HR)", "setting": "[4]; 500 μg (n=3)", "value": "18.7±4.0"},
      {"measurement": "adverse events (AEs)", "setting": "[4]; 500 μg dose, 3 patients", "value": "No AEs were noted"},
      {"measurement": "adverse events (AEs)", "setting": "[4]; 10-500 μg IV bolus", "value": "infrequent and included nausea, flushing, and headache; these were mild and self-limited"},
      {"measurement": "time at which increase in CBFv was near peak, post onset of bolus", "setting": "[4]; IV bolus, humans", "value": "30 to 40", "unit": "s"},
      {"measurement": "solubility in a pharmaceutical composition including MBA", "setting": "[5]", "value": "tends to decrease as the composition pH drops towards neutral"}
    ]}
  ]
}
